In patent US4826854A, “Certain cycloalka-(b)-pyrazolo(3,4-d)-pyridin-3-one derivatives” (Ciba-Geigy Corporation, priority 1987, dated 1989):

How the values were obtained:
benzodiazepine receptor = benzodiazepine receptor binding and agonist/antagonist profile (3H-flunitrazepam displacement, rat brain membranes)
Protocol: The benzodiazepine receptor binding properties indicative of the nervous system regulatory activity of said new compounds are determined in the receptor binding assay in vitro, e.g. similarly to that in Nature 266, 732 (1977) or Proc. Nat. Acad. Sci. USA 74, 3805 (1977). When tritiated flunitrazepam is used, the interaction of other drugs with said receptor can be readily assessed thus: Synaptosnal membranes from rat fore-brain are incubated at 0°-5° for 30 minutes with 0.5 nM tritiated flunitrazepam and various concentrations of the test substance in a buffer medium maintained at pH 7.5. […] The membranes, containing the receptors with various amounts of tritiated flunitrazepam, are filtered onto glass fiber filters, which are then analyzed in a liquid scintillation counter. […]
The pharmacological agonist and/or antagonist/inverse agonist profile of the benzodiazepine receptor modulators of the invention can also be determined by measuring their effect in a rat brain membrane preparation on the displacement of ^3 H-flunitrazepam in the presence or absence of gamma-aminobutric acid (GABA), on the enhancement of ^3 H-muscimol binding by etazolate, or on the binding of ^35 S-butyl bicyclophosphorothionate (TBPS), e.g. as described in J. Pharmacol. Exp. Ther. 231, 572 (1984).

male Wistar rats = experiment: Cook-Davidson conflict procedure (anxiolytic effects); assay type: in vivo, rat; settings: e.g. as determined in the Cook-Davidson model
From the text: Anxiolytic effects are observed, for example, by measuring the antagonism of pentylenetetrazol discriminative stimuli in the rat and according to the Cook-Davidson conflict procedure, using male Wistar rats, e.g. as described in Drug Development Research 6: 313-325 (1985).

rat = experiment: discrimination test in the rat; assay type: in vivo; settings: test compounds administered orally
From the text: Illustrative thereof is the compound of example 1.
The diazepam discrimination test, can also be used to determine benzodiazepine antagonist properties.

| SMILES | pharmacological profile at the benzodiazepine receptor (benzodiazepine receptor) | anxiolytic properties (male Wistar rats) | generalization to the discrimination test (rat) |
| --- | --- | --- | --- |
| O=c1c2c[nH]c3c(c-2nn1-c1ccc(Cl)cc1)CCCCCC3 [Example 2b, 2-(4-chlorophenyl)-2,3,6,7,8,9,10,11-octahydrocycloocta[b]pyrazolo[3,4-d]-pyridin-3(5H)-one] | benzodiazepine agonist profile | – | – |
| COc1ccc(-n2nc3c4c([nH]cc-3c2=O)CCCCCC4)cc1 [Example 1, 2-(4-methoxyphenyl)-2,3,6,7,8,9,10,11-octahydrocycloocta[b]pyrazolo[3,4-d]pyridin-3(5H)-one] | benzodiazepine agonist profile | demonstrate anxiolytic properties | do not generalize to the discrimination test |
